The test system of test [1] is MV-4-11 cells. The experiment in a line: Cell viability in MV-4-11 cells (CellTiter Glo2). Format: cell-based. The following applies: Homo sapiens, MV4-11, 96 h, 8-point dose response, 4 days, CellTiter Glo2 (Table E2), read-out: MV-4-11 Cell Viability, MV-4-11 IC50.
Procedure: Approximately 10,000 MV-4-11 cells per well of a 96-well plate were treated with DMSO (no drug control) or each compound in Tables E1 and E2 in an 8-point dose response for 4 days, Cell viability was measured using CellTiter Glo2. The ICse of each compound was determined using CDD Vault.
The target of test [2] is T1, NAMPT (Homo sapiens, UniProt P43490).
T1 construct: purchased Abcam ab221819
Put plainly: NAMPT Activity Assay (Abcam #ab221819). Format: biochemical. The following applies: purified NAMPT, two-step reaction, OD450 nm; percent inhibition vs no drug; compound concentration not stated.

T1 sequence (P43490 whole entry): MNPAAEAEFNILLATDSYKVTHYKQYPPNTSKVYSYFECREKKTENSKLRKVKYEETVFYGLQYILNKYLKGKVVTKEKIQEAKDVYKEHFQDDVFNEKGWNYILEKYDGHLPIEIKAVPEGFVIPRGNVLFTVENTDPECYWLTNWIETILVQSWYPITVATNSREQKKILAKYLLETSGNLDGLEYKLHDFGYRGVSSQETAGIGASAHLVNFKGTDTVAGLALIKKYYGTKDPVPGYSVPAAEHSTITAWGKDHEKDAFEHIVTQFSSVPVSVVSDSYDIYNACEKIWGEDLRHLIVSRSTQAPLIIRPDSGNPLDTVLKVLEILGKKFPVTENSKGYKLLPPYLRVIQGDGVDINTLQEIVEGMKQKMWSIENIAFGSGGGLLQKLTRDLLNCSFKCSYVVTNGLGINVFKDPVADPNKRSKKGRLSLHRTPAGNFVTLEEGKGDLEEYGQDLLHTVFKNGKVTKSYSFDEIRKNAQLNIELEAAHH

For orientation: IC50 means the midpoint of a concentration-inhibition curve. Regarding `COC(=O)c1cc(-c2ccc(C(=O)NCc3cccnc3)cn2)ccc1N(C)C(C)=O` [Compound I-662, Methyl 2-[acetyl(methyl)amino]-5-[5-(3-pyridylmethylcarbamoyl)-2-pyridyl]benzoate], the IC50 in test [1] was 36 nM. The “NAMPT Inhibition Code” value in test [2] is on record as “C (C = ≥66% inhibition)”.
Take `CC(=O)N(C)c1ccc(-c2ccc(C(=O)NCc3cccnc3)cn2)cc1C#N` [Compound I-663, 6-[4-[Acetyl(methyl)amino]-3-cyano-phenyl]-N-(3-pyridylmethyl)pyridine-3-carboxamide]: in test [1], the IC50 is 1700 nM. In addition, in test [2], the “NAMPT Inhibition Code” value is given as “B (B = ≥33 to <66% inhibition)”.
Consider `CC(=O)N(CC1CC1)c1ccc(-c2ccc(C(=O)NCc3ccnc(N)c3)cn2)cc1Cl` [Compound I-674, 6-[4-[Acetyl(cyclopropylmethyl)amino]-3-chloro-phenyl]-N-[(2-amino-4-pyridyl)methyl]pyridine-3-carboxamide], for which the IC50 in test [1] is 350 nM. Besides, the “NAMPT Inhibition Code” value in test [2] was “B (B = ≥33 to <66% inhibition)”.
Take `CC(=O)N(CC1CC1)c1ccc(-c2ccc(C(=O)NCc3ccncc3)cn2)cc1Cl` [Compound I-676, 6-[4-[Acetyl(cyclopropylmethyl)amino]-3-chloro-phenyl]-N-(4-pyridylmethyl)pyridine-3-carboxamide]: in test [1], the 50% inhibitory concentration (IC50) was > 997 nM. In test [2], the “NAMPT Inhibition Code” value is listed as “A (A = <33% inhibition)”.
For the compound `CC(=O)N(CC1CC1)c1ccc(-c2ccc(C(=O)NCc3ccc(N)nc3)cn2)cc1Cl` [Compound I-677, 6-[4-[Acetyl(cyclopropylmethyl)amino]-3-chloro-phenyl]-N-[(6-amino-3-pyridyl)methyl]pyridine-3-carboxamide], the IC50 in test [1] was 2.91 nM. Besides, the “NAMPT Inhibition Code” value in test [2] was “C (C = ≥66% inhibition)”.
For `CC(=O)N(CC1CC1)c1ccc(-c2ccc(C(=O)NCc3ccc4nccn4c3)cn2)cc1Cl` [Compound I-679, 6-[4-[Acetyl(cyclopropylmethyl)amino]-3-chloro-phenyl]-N-(imidazo[1,2-a]pyridin-6-ylmethyl)pyridine-3-carboxamide], in that order: 0.566 nM and “C (C = ≥66% inhibition)”.
For `CC(=O)N(CC1CC1)c1ccc(-c2ccc(C(=O)Nc3ccc4nccn4c3)cn2)cc1Cl` [Compound I-681, 6-[4-[Acetyl(cyclopropylmethyl)amino]-3-chloro-phenyl]-N-imidazo[1,2-a]pyridin-6-yl-pyridine-3-carboxamide], in that order: 1.31 nM and “C (C = ≥66% inhibition)”.
Take `CC(=O)N(CC1CC1)c1ccc(-c2ccc(C(=O)Nc3cccnc3)cn2)cc1Cl` [Compound I-683, 6-[4-[Acetyl(cyclopropylmethyl)amino]-3-chloro-phenyl]-N-(3-pyridyl)pyridine-3-carboxamide]: the IC50 in test [1] is > 997 nM. The “NAMPT Inhibition Code” value in test [2] is “C (C = ≥66% inhibition)”.
For `CC(=O)N(CC1CC1)c1ccc(-c2ccc(C(=O)Nc3ccncc3)cn2)cc1Cl` [Compound I-684, 6-[4-[Acetyl(cyclopropylmethyl)amino]-3-chloro-phenyl]-N-(4-pyridyl)pyridine-3-carboxamide], in that order: 341 nM and “A (A = <33% inhibition)”.
For `CC(=O)N(CC1CC1)c1ccc(-c2ccc(C(=O)NCc3cccnc3F)cn2)cc1Cl` [Compound I-685, 6-[4-[Acetyl(cyclopropylmethyl)amino]-3-chloro-phenyl]-N-[(2-fluoro-3-pyridyl)methyl]pyridine-3-carboxamide], in that order: 340 nM and “C (C = ≥66% inhibition)”.
For `CC(=O)N(CC1CC1)c1ccc(-c2ccc(C(=O)Nc3ccn4ccnc4c3)cn2)cc1Cl` [Compound I-687, 6-[4-[Acetyl(cyclopropylmethyl)amino]-3-chloro-phenyl]-N-imidazo[1,2-a]pyridin-7-yl-pyridine-3-carboxamide], in that order: 261 nM and “A (A = <33% inhibition)”.
For `CC(=O)N(CC1CC1)c1ccc(-c2ccc(C(=O)NCc3ccc(Cl)nc3)cn2)cc1Cl` [Compound I-689, 6-[4-[Acetyl(cyclopropylmethyl)amino]-3-chloro-phenyl]-N-[(6-chloro-3-pyridyl)methyl]pyridine-3-carboxamide], the IC50 in test [1] was 32.8 nM. In addition, the “NAMPT Inhibition Code” value in test [2] was “C (C = ≥66% inhibition)”.
With `CC(=O)N(CC1CC1)c1ccc(-c2ccc(C(=O)NCc3cncc(F)c3)cn2)cc1Cl` [Compound I-690, 6-[4-[Acetyl(cyclopropylmethyl)amino]-3-chloro-phenyl]-N-[(5-fluoro-3-pyridyl)methyl]pyridine-3-carboxamide], in test [1], the IC50 turned out to be 336 nM. Besides, the “NAMPT Inhibition Code” value in test [2] is “C (C = ≥66% inhibition)”.
